Tests used:
[1] = target: T1, phosphoenolpyruvate carboxylase (Escherichia coli, UniProt P00864); assay: CFPS yield with raised initial Asp; assay type: biochemical, E. coli; conditions: 12 mM Asp compared with conventional 2 mM Asp, one-hour reaction
T1 construct: many enzymes which likely retain activity in the lysate-based CFPS reactions consume precious ATP superfluously; endogenous in cells; host or cells: E. coli BL21 Star (DE3) cell extract (lysate)
Source text: The metabolic engineering approach presented in this work may also be useful for modulating protein expression yield or other desired products from cell-free reactions. Indeed, many enzymes which likely retain activity in the lysate-based CFPS reactions consume precious ATP superfluously. For example, GLNS, which is inhibited in this work, consumes ATP in the process of synthesizing Gln. […] Indeed, during the process of completing the work described herein, we learned that phosphoenolpyruvate carboxylase circumvents the production of ATP from PEP, and that its inhibition might improve CFPS performance. Accordingly, we identified Asp as an inhibitor of this enzyme and observed that CFPS initiated with 12 mM Asp compared with the conventional 2 mM Asp increased CFPS yield by 38% over a one-hour reaction (FIG. 8).
(§1) Gln was omitted from Gln-sensing reactions. […] Results were obtained after 60 minutes.

E. coli ASNase = target: T2, E. coli ASNase (Escherichia coli, UniProt P00805); assay: CFPS reactions producing GFP in the presence of E. coli ASNase and ASP; assay type: biochemical; conditions: 1.54 IU/mL ASNase + 6.5 mM ASP vs 1.54 IU/mL ASNase
T2 construct: purchased
T2 sequence (P00805 23-348): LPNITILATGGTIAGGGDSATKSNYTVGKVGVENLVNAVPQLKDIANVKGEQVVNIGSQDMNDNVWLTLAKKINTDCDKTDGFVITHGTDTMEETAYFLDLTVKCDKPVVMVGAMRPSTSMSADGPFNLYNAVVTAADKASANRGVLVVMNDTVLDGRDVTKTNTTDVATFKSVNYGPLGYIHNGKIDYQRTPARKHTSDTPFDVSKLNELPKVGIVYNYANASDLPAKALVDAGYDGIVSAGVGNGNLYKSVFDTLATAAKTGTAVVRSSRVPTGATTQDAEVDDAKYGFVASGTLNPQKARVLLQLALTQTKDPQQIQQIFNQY
Protocol: In FIG. 8, CFPS reactions producing GFP in the presence of E. coli ASNase and ASP. Reported conditions include 0 IU/mL ASNase (no ASNase added), 1.54 IU/mL ASNase, and 1.54 IU/mL ASNase+6.5 mM ASP. […] No plasmid (NP) control tests for the impact of CFPS machinery and possible reaction products if added to a CFPS reaction producing GFP. As such, for the NP control 5 μL of a cellfree reaction product (where no plasmid was added such that no protein expression was templated) was added to a second CFPS reaction producing GFP. […] Error bars represent one standard deviation for n=2 CFPS reactions.

[2] = system: E. coli-based CFPS reactions producing GFP; assay: CFPS Gln sensor assay, aqueous samples (GFP reporter); assay type: biochemical; conditions: 70 mM MSO, Gln omitted as reagent, 1 hr, n=2, read-out: EC50 value (Hill equation fit of GFP response)
Protocol: Reactions omitted Gln as a reagent but included 70 mM MSO. Aqueous samples of known Gln concentrations were added to the CFPS reaction. On the graph, the x-axis represents the final concentration of Gln in the CFPS reaction (ranging from 0 to 2400 μM). Each data point represents a CFPS reaction after 1 hr with n=2 at each Gln concentration. […] The inset plots linear regression of the data. The solid blue line represents the fit, solid red bands represent the 95% confidence of fit, and dashed black bands represent the 95% confidence range for a single-point prediction.
Example 1: E. coli cell extract containing bacteriophage T7 RNA polymerase was prepared as previously described. Briefly, 5 mL overnight culture of BL21 Star™ (DE3) was added to 100 mL 2xYT. When OD600 reached ˜2.0, culture was transferred to 900 mL 2xYT. 1 L cultures were induced with 1 mM IPTG at OD600 0.4-0.6 and harvested at OD600 ˜2.5. All bacterial cultures were incubated at 37° C. and 280 RPM. Cells were homogenized with three passes at 21000 psi using the EmulsiflexB15 French press homogenizer (Avestin, Ottawa, Calif.) and centrifuged at 12000 RCF for 10 min. Clarified lysate was then incubated at 37° C. and 280 RPM for 30 min. Cell extract was dialyzed using 14 kDa MW cut-off cellulose membrane tubing (MilliporeSigma, Billerica, Mass.) for 4 hr at 4° C. immediately following incubation at 37° C. […]

[3] = system: E. coli-based CFPS reactions producing GFP; assay: CFPS Gln sensor assay in the presence of human serum; assay type: biochemical; conditions: 70 mM MSO, RNAse inhibitor, 14% (v/v) human serum, 1 hr, n=2; read-out: EC50 value (Hill equation fit of GFP response)
Protocol: Reactions omitted Gln as a reagent but contained 70 mM MSO, RNAse inhibitor, and 14% (v/v) human serum with increasing Gln concentrations. The x-axis represents the corresponding Gln concentration in the CFPS reaction. Each data point represents a CFPS reaction after 1 hr with n=2 at each CFPS Gln concentration. […] Solid blue line represents the fit, solid red bands represent the 95% confidence of fit, and dashed black bands represent the 95% confidence range for a single-point prediction.
Example 1: E. coli cell extract containing bacteriophage T7 RNA polymerase was prepared as previously described. Briefly, 5 mL overnight culture of BL21 Star™ (DE3) was added to 100 mL 2xYT. When OD600 reached ˜2.0, culture was transferred to 900 mL 2xYT. 1 L cultures were induced with 1 mM IPTG at OD600 0.4-0.6 and harvested at OD600 ˜2.5. All bacterial cultures were incubated at 37° C. and 280 RPM. Cells were homogenized with three passes at 21000 psi using the EmulsiflexB15 French press homogenizer (Avestin, Ottawa, Calif.) and centrifuged at 12000 RCF for 10 min. Clarified lysate was then incubated at 37° C. and 280 RPM for 30 min. Cell extract was dialyzed using 14 kDa MW cut-off cellulose membrane tubing (MilliporeSigma, Billerica, Mass.) for 4 hr at 4° C. immediately following incubation at 37° C.
as §1

[4] = target: glutamine synthetase (GLNS) (Escherichia coli, UniProt P0A9C5)
Chain of glutamine synthetase (GLNS) (P0A9C5 2-469 limits assumed): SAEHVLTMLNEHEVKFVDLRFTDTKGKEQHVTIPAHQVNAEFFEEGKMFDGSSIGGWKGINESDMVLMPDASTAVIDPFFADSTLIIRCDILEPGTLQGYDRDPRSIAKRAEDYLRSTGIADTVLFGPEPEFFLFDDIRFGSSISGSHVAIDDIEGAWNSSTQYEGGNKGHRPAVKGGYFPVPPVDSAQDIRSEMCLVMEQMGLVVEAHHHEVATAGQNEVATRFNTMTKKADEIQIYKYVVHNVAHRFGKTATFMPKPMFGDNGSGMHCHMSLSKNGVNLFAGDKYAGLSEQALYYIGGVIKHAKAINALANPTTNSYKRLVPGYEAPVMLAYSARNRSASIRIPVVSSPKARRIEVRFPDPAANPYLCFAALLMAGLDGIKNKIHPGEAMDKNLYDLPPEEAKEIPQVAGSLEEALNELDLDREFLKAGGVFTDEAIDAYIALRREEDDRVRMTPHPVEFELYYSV
Protocol: Example 2: Cell-free protein synthesis reactions were formulated in 96-well plates with the following specifications: 25% (v/v) cell extract, 12 nM pY71-sfGFP^37, 10-20 mM magnesium glutamate (concentration adjusted for optimal protein yield), 1 mM 1,4-diaminobutane, 1.5 mM spermidine, 40 mM phosphoenolpyruvate, 10 mM ammonium glutamate, 175 mM potassium glutamate, 2.7 mM potassium oxalate, 0.33 mM nicotinamide adenine dinucleotide, 0.27 mM coenzyme A, 1.2 mM ATP, 0.86 mM CTP, 0.86 mM GTP, 0.86 mM UTP, 0.17 mM folinic acid, 6 mM aspartate, 6 mM asparagine, and 2 mM of the 16 remaining proteinogenic amino acids. Gln was omitted from Gln-sensing reactions. For reactions containing human serum (Gemini Bio Products, Sacramento, Calif.), murine RNAse inhibitor (New England BioLabs, Ipswich MA) was added to a final concentration of 0.8 U/μL CFPS. Reactions were incubated at 37° C. in a BioTek SynergyMX plate reader, shaken for 30 seconds, and analyzed for fluorescence every 4-6 minutes at 480/510 nm excitation/emission wavelengths. Results were obtained after 60 minutes. Assay signal strength was calculated as the ratio of GFP RFU at saturating Gln concentrations to the GFP RFU at 0 μM Gln.

T1 sequence (P00864 whole entry): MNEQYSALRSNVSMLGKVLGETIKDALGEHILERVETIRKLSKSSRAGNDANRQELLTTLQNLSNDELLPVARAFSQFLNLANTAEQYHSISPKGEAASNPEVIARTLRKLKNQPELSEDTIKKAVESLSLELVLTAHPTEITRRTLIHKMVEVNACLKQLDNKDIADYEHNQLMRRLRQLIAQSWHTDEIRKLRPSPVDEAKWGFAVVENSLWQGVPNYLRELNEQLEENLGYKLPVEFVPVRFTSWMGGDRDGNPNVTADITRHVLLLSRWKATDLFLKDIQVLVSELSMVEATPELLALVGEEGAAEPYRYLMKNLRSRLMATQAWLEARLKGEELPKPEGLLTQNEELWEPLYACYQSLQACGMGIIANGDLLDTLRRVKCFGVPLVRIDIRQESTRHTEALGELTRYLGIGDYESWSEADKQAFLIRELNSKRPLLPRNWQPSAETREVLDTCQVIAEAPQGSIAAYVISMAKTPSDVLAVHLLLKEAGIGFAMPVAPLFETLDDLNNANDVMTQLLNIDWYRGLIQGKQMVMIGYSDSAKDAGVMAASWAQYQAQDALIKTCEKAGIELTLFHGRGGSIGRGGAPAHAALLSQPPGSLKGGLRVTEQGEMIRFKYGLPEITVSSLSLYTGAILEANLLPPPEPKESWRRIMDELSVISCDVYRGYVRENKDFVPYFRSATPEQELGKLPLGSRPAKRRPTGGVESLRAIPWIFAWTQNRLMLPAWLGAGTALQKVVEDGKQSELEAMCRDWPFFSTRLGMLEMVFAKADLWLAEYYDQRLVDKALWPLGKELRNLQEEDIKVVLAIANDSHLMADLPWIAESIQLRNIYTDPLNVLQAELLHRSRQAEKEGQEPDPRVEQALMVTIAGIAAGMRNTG

`N[C@@H](CC(=O)O)C(=O)O` [Asp, L-aspartate] was tested, and the “increase of CFPS yield” value [1] was 38% and the “effect of ASP supplementation on ASNase activity” value (E. coli ASNase) was “inhibitory effect”.

Work on `NC(=O)CC[C@H](N)C(=O)O` [Gln, L-glutamine] yielded an EC50 [2] of 154 µM and an EC50 [3] of 100 µM.

For `CS(=N)(=O)CC[C@H](N)C(=O)O` (stereo partly drawn) [MSO, Methionine sulfoximine], the “effect on CFPS expression yield” value ([4]; concentrations up to 80 mM in the presence of 2 mM Gln) was “little effect” and the “signal-to-noise ratio of the assay” value ([4]; increased linearly with increasing MSO concentration up to 70 μM) was roughly 10.

Reference: patent publication US20210324442A1, “In vitro Transcription-Translation Metabolic Networks to Measure Quantity or Activity of Enzymes” (priority 2020, published 2021)
